Type in all cases: in vivo
Experiment [1] deals with wild oat (AVEFA, Avena fatua). As to the kind of experiment: Test G mixtures of Compound 26 with crop safeners, postemergence plant response. Conditions: applied alone, 125 g a.i./ha. The procedure:
(§1) This test evaluated the effect of mixtures of Compound 26 with commercial crop safeners cloquintocet-mexyl, mefenpyr-diethyl, and fenchlorazole-ethyl on three plant species. Seeds of winter wheat (TRZAW, Triticum aestivum), winter barley (HORVX, Hordeum vulgare), and wild oat (AVEFA, Avena fatua) (a weed) were planted into a silt loam soil. Plants from these seeds were treated postemergence using test chemicals formulated in a non-phytotoxic solvent mixture that included a surfactant. Plants ranged in height from 6 to 10 cm (2- to 3-leaf stage).
(§2) Plants were grown in a greenhouse using supplemental lighting to maintain a photoperiod of about 14 hours; daytime and nighttime temperatures were about 22-26° C. and 15-19° C., respectively. Balanced fertilizer was applied through the watering system. Treatments consisted of Compound 26 and the above mentioned safeners alone and in combination using a spray volume of 281 L/ha. Each treatment was replicated four times. Treated plants and controls were maintained in a greenhouse for 15 days, after which time all treated plants were compared to controls and visually evaluated. Plant response ratings were calculated as the means of the four replicates based on a scale of 0 to 100 where 0 is no effect and 100 is complete control and are summarized in Tables G1 to G3. Because the safeners alone caused no injury at the rates tested, the expected effect of a mixture of Compound 26 with a safener is the same as the observed effect of Compound 26 alone.
(§3) The highest application rate of each safener was tested alone to confirm the absence of herbicidal activity on the test species when appled postemergence at 125 g ai/ha. Therefore, an extrapolated result of zero for each safener alone at 16, 31, or 62 g ai/ha was used to calculate the mixture response of Compound 26 and these safener application rates.

In experiment [2] the test system is winter barley (HORVX, Hordeum vulgare). The experiment is described as above. Conditions: applied alone, 125 g a.i./ha. How it is done: as §1, §2, §3
In experiment [3] the test system is winter wheat (TRZAW, Triticum aestivum). Described as above. To be noted: applied alone, 125 g a.i./ha. How it is done:
as §1, §2, §3

The subject of experiment [4] is barnyardgrass (Echinochloa crus-galli). As to the kind of experiment: Test A pre-/postemergence plant response. The method, boiled down: (§4)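 Seeds were planted in blended loam soil and sand, then treated preemergence by directed soil spray. At that time, emerged plants (one- to two-leaf, 2–10 cm) received postemergence applications of the same surfactant-containing formulation. Injury was assessed visually on a 0–100 scale after approximately 10 days.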

Experiment [5] deals with blackgrass (Alopecurus myosuroides). Put plainly: Test A pre-/postemergence plant response. The method, boiled down: as §4
The test system of experiment [6] is canarygrass (Phalaris minor). As to the kind of experiment: Test A pre-/postemergence plant response. To be noted: 125 g ai/ha. The method, boiled down: as §4
Another experiment relates to corn (Zea mays). Put plainly: Test A pre-/postemergence plant response. Summed up: as §4
Experiment [7] concerns giant foxtail (Setaria faberi). As to the kind of experiment: Test A pre-/postemergence plant response. The method, boiled down: as §4
Experiment [8] has as its system large crabgrass (Digitaria sanguinalis). As to the kind of experiment: Test A pre-/postemergence plant response. Summed up:
as §4

Experiment [9] concerns pigweed (Amaranthus retroflexus). As to the kind of experiment: Test A pre-/postemergence plant response. The method, boiled down:
as §4

The subject of experiment [10] is wheat (Triticum aestivum). As to the kind of experiment: Test A pre-/postemergence plant response. The method, boiled down: as §4
In experiment [11] the test system is barnyardgrass (Echinochloa crus-galli). Put plainly: Test B flooded paddy test plant response. The method, boiled down: (§5)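 Paddy-water application to 2-leaf plants in pots held under 3 cm of flooding; response is a 0–100 visual control rating against controls after 13 to 15 days, and a dash marks a missing result.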
Experiment [12] deals with ducksalad (Heteranthera limosa). As to the kind of experiment: Test B flooded paddy test plant response. Summed up: as §5
In the next experiment the test system is rice (Oryza sativa). As to the kind of experiment: Test B flooded paddy test plant response. The method, boiled down: as §5
Experiment [13] has as its system umbrella sedge (Cyperus difformis). As to the kind of experiment: Test B flooded paddy test plant response. Summed up:
as §5

Experiment [14] relates to wild oat (AVEFA, Avena fatua). Put plainly: Test F mixtures with safener cloquintocet-mexyl, pre-/postemergence plant response. To be noted: for AVEFA Obsd. (observed effect) plant response rating, scale 0 to 100: applied alone. The text has this: (§6) This test evaluated the effect of mixtures of Compound 3, Compound 11, or Compound 12 with the commercial crop safener cloquintocet-mexyl on three plant species. Seeds of test plants consisting of winter wheat (TRZAW, Triticum aestivum), winter barley (HORVX, Hordeum vulgare), and wild oat (AVEFA, Avena fatua) (a weed) were planted into a blend of loam soil and sand and treated preemergence with a directed soil spray using test chemicals formulated in a non-phytotoxic solvent mixture that included a surfactant. At the same time, plants selected from these crop and weed species were treated with postemergence applications of the test chemicals formulated in the same manner. Plants ranged in height from 2 to 18 cm (1- to 4-leaf stage) for postemergence treatments.
(§7) Plants were grown in a greenhouse using supplemental lighting to maintain a photoperiod of about 16 hours; daytime and nighttime temperatures were about 24-30° C. and 19-21° C., respectively. Balanced fertilizer was applied through the watering system. Treatments consisted of Compound 3, Compound 11, or Compound 12 and the above mentioned safener alone and in combination using a spray volume of 457 L/ha. Each treatment was replicated three times. Treated plants and controls were maintained in a greenhouse for 14 to 21 days, after which time all treated plants were compared to controls and visually evaluated. Plant response ratings were calculated as the means of the three replicates and are summarized in Tables F1 to F6, and are based on a scale of 0 to 100 where 0 is no effect and 100 is complete control. Because cloquintocet-mexyl alone caused no injury at the rates tested, the expected effect of a mixture of Compound 3 with cloquintocet-mexyl is the same as the observed effect of Compound 3 applied alone.

Experiment [15] has as its system winter barley (HORVX, Hordeum vulgare). The description is as above. To be noted: for HORVX Obsd. (observed effect) plant response rating, scale 0 to 100: applied alone.
Source text: as §6, §7

Experiment [16] relates to winter wheat (TRZAW, Triticum aestivum). The experiment is described as above. To be noted: for TRZAW Obsd. (observed effect) plant response rating, scale 0 to 100: applied alone.
Source text: as §6, §7

The mark [17] stands for this setting: Postemergence, 31 g ai/ha, 0 to 100 scale, 0 no effect, 100 complete control.
The mark [18] stands for this setting: Postemergence, 125 g ai/ha, 0 to 100 scale, 0 no effect, 100 complete control.
The mark [19] stands for this setting: Preemergence, 31 g ai/ha, 0 to 100 scale, 0 is no effect, 100 is complete control.
Setting [20] is: Preemergence, 125 g ai/ha, 0 to 100 scale (0 no effect, 100 complete control).
Setting [21] is: Flood (flooded paddy test), 250 g ai/ha, scale 0 to 100, 0 no effect, 100 complete control.
Setting [22] is: Flood, 62 g ai/ha, scale 0 to 100.

For `CCOC(=O)C1=NN(c2ccc(Cl)cc2Cl)C(C)(C(=O)OCC)C1` (centres unmarked) [mefenpyr-diethyl], in [1], the “AVEFA Obsd. (observed effect) plant response rating, scale 0 to 100” value came out at 0. In addition, in experiment [2], the “HORVX Obsd. (observed effect) plant response rating, scale 0 to 100” value amounted to 0. Further, in experiment [3], the “TRZAW Obsd. (observed effect) plant response rating, scale 0 to 100” value is listed as 0.
In the case of `CCOC(=O)c1nc(C(Cl)(Cl)Cl)n(-c2ccc(Cl)cc2Cl)n1` [fenchlorazole-ethyl], the “AVEFA Obsd. (observed effect) plant response rating, scale 0 to 100” value in experiment [1] was found to be 0. Moreover, in experiment [2], the “HORVX Obsd. (observed effect) plant response rating, scale 0 to 100” value is 0. Besides, the “TRZAW Obsd. (observed effect) plant response rating, scale 0 to 100” value in [3] is 0.
Consider `CCc1cc(-c2ccc(Cl)cc2)nn1-c1c(O)c(C)nn(C)c1=O` [Compound 86], for which the “Plant response rating, Barnyardgrass” value in experiment [4] (setting [17]) is reported as 100; in experiment [4] (setting [18]) it was 100; in experiment [4] (setting [19]) it was 50; in [4] (setting [20]), 100; in experiment [11] (setting [21]) it was 40; in [11] (setting [22]), 0. For the same compound, the “Plant response rating, Blackgrass” value was found to be 80 in experiment [5] (setting [17]), 100 in experiment [5] (setting [18]), 50 in [5] (setting [19]) and 90 in [5] (setting [20]). Moreover, the “Plant response rating, Canarygrass” value in experiment [6] (Postemergence, 0 to 100 scale, 0 no effect, 100 complete control) is 100; in experiment [6] (Preemergence, 0 to 100 scale (0 no effect, 100 complete control)) it was 100. For the same compound, the “Plant response rating, Corn” value is 30 with corn (Zea mays) (setting [17]), 90 in the experiment on corn (Zea mays) (setting [18]), 0 in the experiment on corn (Zea mays) (setting [19]) and 40 with corn (Zea mays) (setting [20]). Moreover, the “Plant response rating, Foxtail, Giant” value in [7] (setting [17]) is listed as 70; in experiment [7] (setting [18]), 90; in experiment [7] (setting [19]), 10; in experiment [7] (setting [20]), 100. The “Plant response rating, Crabgrass, Large” value was determined as 70 in [8] (setting [17]), 100 in [8] (setting [18]), 10 in [8] (setting [19]) and 90 in experiment [8] (setting [20]). Further, the “Plant response rating, Pigweed” value in experiment [9] (setting [17]), in [9] (setting [18]), in experiment [9] (setting [19]) and in experiment [9] (setting [20]) was 0 throughout. The “Plant response rating, Wheat” value is on record as 20 in experiment [10] (setting [17]), 50 in [10] (setting [18]), 0 in experiment [10] (setting [19]) and 40 in experiment [10] (setting [20]). The “Plant response rating, Ducksalad” value came out at 65 in [12] (setting [21]) and 30 in experiment [12] (setting [22]). Besides, the entries for the “Plant response rating, Rice” value in the experiment with rice (Oryza sativa) (setting [21]) and in the experiment with rice (Oryza sativa) (setting [22]) were 35 and 30, respectively. The “Plant response rating, Sedge, Umbrella” value in [13] (setting [21]) amounted to 55; in experiment [13] (setting [22]), 0.
Turning to `CCCCCC(C)OC(=O)COc1ccc(Cl)c2cccnc12` (centres unmarked) [cloquintocet-mexyl, reference compound], the “AVEFA Obsd. (observed effect) plant response rating, scale 0 to 100” value in experiment [14] (postemergence, 4 g a.i./ha) was determined as 0; in [14] (postemergence, 8 g a.i./ha), 0; in experiment [14] (preemergence, 4 g a.i./ha), 0; in [14] (preemergence, 8 g a.i./ha), 0; in experiment [1], 0. In addition, the “plant response (injury), safener alone” value is “no injury” in [14] (wild oat, safener alone at the rates tested, pre- and postemergence, 14 to 21 days); “no injury” in experiment [15] (winter barley, safener alone at the rates tested, pre- and postemergence, 14 to 21 days); “no injury” in [16] (winter wheat, safener alone at the rates tested, pre- and postemergence, 14 to 21 days). For the same compound, the “HORVX Obsd. (observed effect) plant response rating, scale 0 to 100” value in experiment [15] (postemergence, 4 g a.i./ha) amounted to 0; in experiment [15] (postemergence, 8 g a.i./ha) it was 0; in experiment [15] (preemergence, 4 g a.i./ha), 0; in experiment [15] (preemergence, 8 g a.i./ha) it was 0; in [2], 0. Also, the “TRZAW Obsd. (observed effect) plant response rating, scale 0 to 100” value is 0 in [16] (postemergence, 4 g a.i./ha); 0 in experiment [16] (postemergence, 8 g a.i./ha); 0 in experiment [16] (preemergence, 4 g a.i./ha); 0 in experiment [16] (preemergence, 8 g a.i./ha); 0 in [3].

Values taken from US20100267561A1, “HERBICIDAL PYRIDAZINONE DERIVATIVES” (priority 2007, published 2010).
